SMILES strings stand for the structures. Like-named read-outs stand apart in the source and are kept apart here.

For data set [1], the system named is type 2 herpes simplex strain 3345. Kind of data set: Inhibition of hsv2 replication in African green monkey kidney cells (Example 3). Particulars: for inhibition at 15 µg/mL: Digoxin 15 mcg/ml; for inhibition at 15 µg/mL / inhibition at 30 µg/mL: Frusemide 0 mg/ml; for inhibition at 30 µg/mL: Digoxin 30 mcg/ml; for Inhibition of virus replication / inhibition at 500 µg/mL: Digoxin 0 mcg/ml; for Inhibition of virus replication: Frusemide 1.0 mg.ml; for inhibition at 500 µg/mL: Frusemide 0.5 mg/ml, read-out: Inhibition of virus replication. It counts as cell-based, herpes simplex virus. The source says:
The compositions were applied to different types of vero cells (African green monkey kidney cells and […]) and infected with type 2 herpes simplex virus (strains 3345 and 180) at low, intermediate, and high multiplicities of infection (M0I). Inhibition of virus replication was scored on the scale:
The following results were obtained using African green monkey kidney cells and type 2 herpes simplex strain 3345: […]

The conditions of data set [2]: cited from earlier work.
Data set [3] relates to Type 1 herpes simplex strain HFEM. In words: Inhibition of hsv1 in infected Vero cells (Example 1). It counts as cell-based, herpes simplex virus. Particulars: Human alphaherpesvirus 1, Vero; for inhibition at 1000 µg/mL: frusemide 1 mg/ml, digoxin 30 mcg/ml. The method, then: . Culture and assay methods follow those described by Lennette and Schmidt (1979) for herpes simplex virus and Vero cells with minor modifications.
Type 1 herpes simplex strain HFEM is a derivative of the Rockerfeller strain HF (Wildy 1955), and Type 2 herpes simplex strain 3345, a penile isolate (Skinner et al 1977) were used as prototype strains. These prototypes were stored at −80° C. until needed.
African Green Monkey kidney cells (vero) were obtained from the National Institute of Biological Standards and Control UK and were used as the only cell line for all experiments in the examples.
Cells and viruses were maintained on Glasgows modified medium supplemented with 10% foetal bovine serum.

Setting [4] is: Human alphaherpesvirus 2, read-out: Inhibition of virus replication, HIGH M0I HSV2.
Setting [5] is: Human alphaherpesvirus 2, read-out: Inhibition of virus replication, INT. M0I HSV2.
Where [6] appears, read: Human alphaherpesvirus 2, read-out: Inhibition of virus replication, LOW M0I HSV2.

Regarding `C[C@H]1O[C@@H](O[C@H]2[C@@H](O)C[C@H](O[C@H]3[C@@H](O)C[C@H](O[C@H]4CC[C@@]5(C)[C@H](CC[C@@H]6[C@@H]5C[C@@H](O)[C@]5(C)[C@@H](C7=CC(=O)OC7)CC[C@]65O)C4)O[C@@H]3C)O[C@@H]2C)C[C@H](O)[C@@H]1O` [digoxin], the inhibition at 15 µg/mL in data set [1] (setting [4]), in data set [1] (setting [5]) and in data set [1] (setting [6]) was 0% throughout. For the same compound, the inhibition at 30 µg/mL amounted to 0% in data set [1] (setting [4]); 20% in data set [1] (setting [5]); 60% in data set [1] (setting [6]); 0% in data set [3] (read-out: Inhibition of hsv1, Multiplicity of infection High, frusemide 1 mg/ml, digoxin 30 mcg/ml); 40% in data set [3] (read-out: Inhibition of hsv1, Multiplicity of infection Low, frusemide 1 mg/ml, digoxin 30 mcg/ml); 20% in data set [3] (read-out: Inhibition of hsv1, Multiplicity of infection Medium, frusemide 1 mg/ml, digoxin 30 mcg/ml). Further, the solubility result in data set [2] (in diluted (50%) alcohol and in chloroform) is reported as “slightly soluble”; in data set [2] (in pyridine), “freely soluble”; in data set [2] (in water and in ether) it was “practically insoluble”.
As for `NS(=O)(=O)c1cc(C(=O)O)c(NCc2ccco2)cc1Cl` [frusemide, 4-chloro-N-furfuryl-5-sulfamoylanthranilic acid], the results for the “Inhibition of virus replication” value in data set [1] (HIGH M0I HSV2), in data set [1] (INT. M0I HSV2) and in data set [1] (LOW M0I HSV2) were “++ (40% inhibition)”, “+++ (60% inhibition)” and “+++ (60% inhibition)”, respectively. Besides, the inhibition at 500 µg/mL is 0% in data set [1] (Human alphaherpesvirus 2, HIGH M0I HSV2); 20% in data set [1] (Human alphaherpesvirus 2, INT. M0I HSV2); 20% in data set [1] (Human alphaherpesvirus 2, LOW M0I HSV2). In addition, the inhibition at 1000 µg/mL in data set [3] (Multiplicity of infection High) amounted to 0%; in data set [3] (Multiplicity of infection Low), 20%; in data set [3] (Multiplicity of infection Medium), 20%.

(Values after patent publication US7534768B2, “Treatment of DNA viral infections” (Henderson Morely Research and Development Ltd., priority 2000, dated 2009).)
